System: capsaicin-sensitive sensory nerve
Test: Capsaicin-induced Evans Blue pigment leakage into mouse bladder (capsaicin-sensitive sensory nerve inhibition)
Assay type: in vivo
Settings: for inhibition of capsaicin-sensitive sensory nerve (summary): female Balb/c mouse bladder, capsaicin stimulation
Protocol: A female Balb/c mouse (Japan SLC) which had been anesthetized by intraperitoneally administering 0.15 ml of 20% urethane was subjected to tracheal cannulation, using a polyethylene tube PE 50. A polyethylene tube PE 10 was inserted into the bladder via a urethra, and hydrochloride of ethyl (−)-2-[4-[2-[[(1S,2R)-2-hydroxy-2-(4-hydroxyphenyl)-1-methy lethyl]amino]ethyl]-2,5-dimethylphenoxy]acetate (to be referred to as “compound 1” hereinafter), which had been dissolved in physiological saline and 2 equivalents of sodium hydroxide to a concentration of 10 μM and further diluted to various concentrations with physiological saline, was injected through the tube. After 1 hour from the injection, a solution (10 ml/kg) of Evans Blue (30 mg/kg) and capsaicin (0.3 mg/kg) dissolved in physiological saline containing 0.1% DMSO and 0.1% Tween 80 was administered through caudal vein. Precisely 5 minutes after the administration, the animal was sacrificed by cervical vertebrae dislocation to extract the bladder. After removing urine and blood from the extracted bladder, wet weight of the bladder was measured, and the extracted bladder was put into each well of a 96 well microplate into which formamide had been dispensed in 150 μl portions in advance. After soaking the bladder overnight in formamide, the pigment in the bladder tissue was determined by measuring absorbance of 100 μl of the supernatant at a wavelength of 620 nm. In addition, the amount of the Evans Blue pigment per 1 mg bladder wet weight was calculated. In this connection, a mouse in which physiological saline was injected into the bladder and the Evans Blue solution containing no capsaicin was administered thereto was used as the normal control.
The results are shown in FIG. 1 by average value ± standard deviation. Inter-group significant difference between normal control group and capsaicin stimulation group was examined by student's t-test. Inter-group significant difference between compound 1 administration group and un-administration group was examined by a one dimensional analysis of variation and subsequent Dunnett's inter-multigroup comparison. A value of p<0.05 was regarded as significant.
The pigment in the bladder tissue was determined in the same manner as in Test Example 1, except that Tolterodine was used instead of the compound 1 and Hartman's solution was used instead of the physiological saline and 2 equivalents of sodium hydroxide. In this connection, a mouse in which Hartman's solution was injected into the bladder and the Evans Blue solution containing no capsaicin was administered thereto was used as the normal control.

[1] = female Balb/c mouse, injected into the bladder 1 hour before i.v. Evans Blue 30 mg/kg + capsaicin 0.3 mg/kg, various concentrations, vs solvent group

| SMILES | inhibition of capsaicin-sensitive sensory nerve (summary) | amount of Evans Blue pigment in bladder tissue [1] | amount of Evans Blue pigment in bladder tissue (1 μM administration group, injected into the bladder, p<0.01 vs solvent group) |
| --- | --- | --- | --- |
| Cc1ccc(O)c([C@H](CCN(C(C)C)C(C)C)c2ccccc2)c1 [Tolterodine, reference compound] | did not inhibit the capsaicin-sensitive sensory nerve | Significant difference in the amount of Evans Blue pigment was not found |  |
| CCOC(=O)COc1cc(C)c(CCN[C@@H](C)[C@H](O)c2ccc(O)cc2)cc1C [compound 1, ethyl (−)-2-[4-[2-[[(1S,2R)-2-hydroxy-2-(4-hydroxyphenyl)-1-methylethyl]amino]ethyl]-2,5-dimethylphenoxy]acetate] | markedly inhibited the capsaicin-sensitive sensory nerve | concentration-dependently reduced the amount of Evans Blue pigment | significantly reduced |
